The values below come from patent US20090215850A1, “METHOD FOR TREATING CB2 RECEPTOR MEDIATED PAIN” (priority 2008, published 2009).

For experiment [1], the target named is T1, CB2 receptor (Rattus norvegicus, UniProt Q9QZN9).
T1 sequence (Q9QZN9 1-360): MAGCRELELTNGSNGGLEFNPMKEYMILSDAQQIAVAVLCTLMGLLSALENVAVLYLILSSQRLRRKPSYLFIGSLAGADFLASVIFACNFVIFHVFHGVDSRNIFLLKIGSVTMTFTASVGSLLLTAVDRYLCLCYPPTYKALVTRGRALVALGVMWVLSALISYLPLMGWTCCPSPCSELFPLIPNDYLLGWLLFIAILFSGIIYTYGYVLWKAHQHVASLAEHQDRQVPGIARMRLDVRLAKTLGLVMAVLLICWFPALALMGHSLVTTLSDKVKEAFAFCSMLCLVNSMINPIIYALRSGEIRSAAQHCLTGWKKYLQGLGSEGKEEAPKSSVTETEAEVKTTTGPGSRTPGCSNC
The conditions noted are these: background statement; cited from earlier work.

For experiment [2], the system named is male Sprague-Dawley rats. The experiment is described as follows: Carrageenan model of inflammatory pain, radiant heat paw withdrawal, compound given 2.5 hr after carrageenan (Example 2). The experiment is classed as in vivo, rat. The note with it: 30 min after compound, seconds±SEM. Here is the method: (§1) To assess the ability of test compounds to reverse thermal hyperalgesia, baseline response latencies on a radiant heat (RH) paw stimulator were obtained before an intraplantar injection of carrageenan-λ (200 μL) in male Sprague-Dawley rats (250-350 g in treatment groups of 9 animals each). Only withdrawal responses that were quick hind paw movements (with or without licking of the hind paw) were recorded. Paw movements associated with locomotion or a shifting of weight were not considered a withdrawal response.
(§2) The weight of each animal was recorded on the day of the experiment. Each animal was placed on a warm (approx. body temperature, 30° C.) glass surface and allowed to acclimate to the test chamber for approximately 10-15 minutes. A radiant thermal stimulus (beam of light) was then focused on the sole of each hind paw in turn, and an initial (baseline) response time to thermal stimuli was recorded for each animal. The stimulus intensity (radiant heat at a setting of 5 Amps) that produced 10-15 sec baseline withdrawal latencies was used and a maximum cutoff of 20 sec was imposed. The light stimulus was automatically shut off by a photoelectric relay when the foot moved or when the cut-off time limit was reached.
The experiment of Example 1 is repeated with the exception that animals are first administered 1% carrageenan (200 μL in sterile saline) subcutaneously into the sub-plantar tissue of the left hind paw to stimulate an acute inflammatory reaction.
Two and a half hours later, withdrawal latencies are assessed (‘post-Cg’). One treatment group is then injected i.p. with vehicle (5% DMSO and 5% Tween-80 in sterile saline). The other treatment groups are injected i.p. with 3, 10 or 30 mg/kg of Compound 2. Thirty minutes after test compound administration withdrawal latencies are recorded.

Experiment [3] relates to male Sprague-Dawley rats. The experiment is described as follows: Carrageenan model of inflammatory pain, radiant heat paw withdrawal, compound given before carrageenan (Example 1). The experiment is classed as in vivo, rat. The note with it: seconds±SEM. Here is the method:
Intraplantar injection of carrageenan (Cg) in a rodent produces pronounced hypersensitivity to both thermal and mechanical stimuli. The effects of carrageenan are maximal 2-4 hr after administration.
as §1, §2
One treatment group (8 animals each) was injected i.p. with vehicle (5% DMSO and 5% Tween-80 in sterile saline). The other treatment groups (8 animals each) were injected i.p. with 3, 10 or 30 mg/kg Compound 2.
One hour later, withdrawal latencies for the animals administered vehicle were recorded. After assessment, all animals were administered 1% carrageenan (200 μL in sterile saline) subcutaneously into the sub-plantar tissue of the left hind paw to stimulate an acute inflammatory reaction. Three hours later, the response time of the animals to the thermal stimulus was evaluated.

As to `CN1CCCCC1Cn1cc(C(=O)c2cc([N+](=O)[O-])ccc2I)c2ccccc21` (stereo not shown) [AM1241], in experiment [1], the “antinociception to thermal stimuli” value is “produces antinociception”.
As to `O=C(NCC12CC3CC(CC(C3)C1)C2)c1nn(C2CCCCC2)c2c1CCCCCC2` [Compound 2, 1-cyclohexyl-4,5,6,7,8,9-hexahydro-1H-cyclooctapyrazole-3-carboxylic acid (adamantan-1-ylmethyl)-amide], the figures for the “withdrawal latency, 3 hrs post Cg administration” value in experiment [2] (3 mg/kg i.p. 2.5 hr after 1% carrageenan), in experiment [2] (10 mg/kg i.p. 2.5 hr after 1% carrageenan) and in experiment [2] (30 mg/kg i.p. 2.5 hr after 1% carrageenan) were 5.92 ± 1.15 s, 6.88 ± 0.44 s and 8.52 ± 1.08 s, respectively. The “response time (withdrawal latency) to thermal stimulus, 3 hrs post Cg administration” value in experiment [3] (3 mg/kg i.p. 1 hr before 1% carrageenan) is 5.11 ± 0.84 s; in experiment [3] (10 mg/kg i.p. 1 hr before 1% carrageenan), 6.18 ± 0.91 s; in experiment [3] (30 mg/kg i.p. 1 hr before 1% carrageenan) it was 14.41 ± 1.75 s.
